The source made the active and inactive calls.
Columns and labels:
[1] = molecular target: T1, Type-1 angiotensin II receptor (Homo sapiens, UniProt P30556); assay: agonist activity at AGTR1 – cell-based, uHTS hits, selectivity assay for APJ receptor agonist project, dose response (AID 488865); type: functional;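 further: beta-arrestin recruitment to AT1 measured by enzyme fragment complementation luminescence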
T1 sequence (P30556 whole entry): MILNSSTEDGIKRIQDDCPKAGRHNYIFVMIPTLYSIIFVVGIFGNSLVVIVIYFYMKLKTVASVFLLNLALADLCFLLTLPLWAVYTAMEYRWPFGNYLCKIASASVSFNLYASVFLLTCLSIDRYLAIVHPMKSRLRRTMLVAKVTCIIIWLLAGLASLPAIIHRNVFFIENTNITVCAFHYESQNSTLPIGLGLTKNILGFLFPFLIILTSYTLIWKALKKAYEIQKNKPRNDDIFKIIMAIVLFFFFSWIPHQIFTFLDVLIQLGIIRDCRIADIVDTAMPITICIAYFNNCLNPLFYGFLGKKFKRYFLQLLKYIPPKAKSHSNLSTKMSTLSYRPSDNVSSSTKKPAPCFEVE

[2] = molecular target: T2, Runt-related transcription factor 1/Core-binding factor subunit beta (Homo sapiens, UniProt Q01196+Q13951); assay: disruptors of Runt domain/CBFb-SMMHC interaction – biochemical, FRET, Cerulean-Runt, Venus-CBFb-SMMHC, uHTS, […] (AID 1434); type: protein assay
T2 sequence (Q01196 whole entry, the tested form may be a part): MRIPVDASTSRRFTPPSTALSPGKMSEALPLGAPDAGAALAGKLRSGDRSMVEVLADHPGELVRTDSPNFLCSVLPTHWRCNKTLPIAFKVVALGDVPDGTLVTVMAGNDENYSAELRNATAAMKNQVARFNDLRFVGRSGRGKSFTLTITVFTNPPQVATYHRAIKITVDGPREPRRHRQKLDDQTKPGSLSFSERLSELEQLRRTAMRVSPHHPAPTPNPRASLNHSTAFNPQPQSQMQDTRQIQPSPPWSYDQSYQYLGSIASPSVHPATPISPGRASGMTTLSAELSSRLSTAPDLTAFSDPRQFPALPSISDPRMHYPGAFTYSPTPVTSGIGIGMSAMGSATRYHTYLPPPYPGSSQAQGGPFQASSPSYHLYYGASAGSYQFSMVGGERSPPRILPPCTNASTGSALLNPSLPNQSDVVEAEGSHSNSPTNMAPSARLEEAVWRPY
T2 sequence (Q13951 whole entry, the tested form may be a part): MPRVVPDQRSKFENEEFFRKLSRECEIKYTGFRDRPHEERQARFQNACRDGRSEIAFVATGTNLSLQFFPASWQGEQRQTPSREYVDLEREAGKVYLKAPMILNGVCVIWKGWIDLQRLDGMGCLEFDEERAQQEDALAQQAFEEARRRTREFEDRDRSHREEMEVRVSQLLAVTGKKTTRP

[3] = molecular target: T2, Runt-related transcription factor 1/Core-binding factor subunit beta; assay: Runt domain/CBFb-SMMHC interaction disruptors – biochemical, TR-FRET (AID 1438); type: protein assay
[4] = molecular target: T3, G-protein coupled receptor 35 (Homo sapiens, UniProt Q9HC97); assay: SAR analysis of Antagonists of the GPR35 Receptor using an Image-Based Assay - Set 3. [Related pubchem assays (depositor defined):AID2013, AID2026]; type: functional
T3 sequence (Q9HC97 whole entry): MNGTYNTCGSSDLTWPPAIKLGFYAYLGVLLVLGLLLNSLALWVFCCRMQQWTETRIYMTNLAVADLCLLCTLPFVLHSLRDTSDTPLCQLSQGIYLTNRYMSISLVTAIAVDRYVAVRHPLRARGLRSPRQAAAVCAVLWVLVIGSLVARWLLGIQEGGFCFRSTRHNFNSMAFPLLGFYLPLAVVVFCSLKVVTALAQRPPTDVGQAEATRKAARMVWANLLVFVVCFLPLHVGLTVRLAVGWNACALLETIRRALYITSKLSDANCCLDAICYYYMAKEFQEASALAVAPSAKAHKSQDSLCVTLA

[5] = molecular target: T4, G-protein coupled receptor 55 (Homo sapiens, UniProt Q9Y2T6); assay: blockade of LPI-induced GPR55 arrestin translocation – imaging, U2OS, beta-arrestin-GFP, LPI agonist, set 2, SAR follow-up (AID 2820); type: functional
T4 sequence (Q9Y2T6 whole entry): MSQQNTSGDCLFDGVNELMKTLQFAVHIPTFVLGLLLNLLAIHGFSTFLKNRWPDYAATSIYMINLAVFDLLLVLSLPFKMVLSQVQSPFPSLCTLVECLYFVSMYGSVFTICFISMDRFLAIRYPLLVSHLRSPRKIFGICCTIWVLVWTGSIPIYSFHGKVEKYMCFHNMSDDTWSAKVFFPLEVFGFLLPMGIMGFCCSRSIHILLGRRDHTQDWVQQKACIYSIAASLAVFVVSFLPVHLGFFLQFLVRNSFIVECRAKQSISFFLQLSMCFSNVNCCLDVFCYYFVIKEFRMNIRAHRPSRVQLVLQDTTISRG

[6] = molecular target: T3, G-protein coupled receptor 35; assay: SAR analysis of Agonists of the GPR35 Receptor using an Image-Based Assay - Set 2. [Related pubchem assays (depositor defined):AID2013, AID2026]; type: functional
[7] = molecular target: T5, Cannabinoid receptor 2 (Homo sapiens, UniProt P34972); assay: SAR analysis of antagonists of the Cannabinoid Receptor 2 using an Image-Based Assay. [Related pubchem assays (depositor defined):AID2013, AID2026]; type: functional
T5 sequence (P34972 whole entry): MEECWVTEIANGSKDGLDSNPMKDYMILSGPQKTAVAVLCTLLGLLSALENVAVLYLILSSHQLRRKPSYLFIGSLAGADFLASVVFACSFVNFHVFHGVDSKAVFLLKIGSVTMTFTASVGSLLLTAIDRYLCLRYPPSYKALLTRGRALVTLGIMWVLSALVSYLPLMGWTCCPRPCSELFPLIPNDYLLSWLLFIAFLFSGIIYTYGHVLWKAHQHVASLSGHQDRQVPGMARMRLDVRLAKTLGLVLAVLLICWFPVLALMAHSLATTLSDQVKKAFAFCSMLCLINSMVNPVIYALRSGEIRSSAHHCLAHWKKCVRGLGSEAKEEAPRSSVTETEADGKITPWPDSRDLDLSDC

[8] = molecular target: T4, G-protein coupled receptor 55; assay: inhibition of LPI-stimulated GPR55 beta-arrestin translocation – imaging, U2OS, beta-arrestin-GFP, LPI agonist, primary screen (AID 2013); type: functional;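 further: antagonist potency measured as reduced agonist-driven arrestin aggregation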
[9] = molecular target: T5, Cannabinoid receptor 2; assay: SAR analysis of agonists of the Cannabinoid Receptor 2 using an Image-Based Assay. [Related pubchem assays (depositor defined):AID2013, AID2026]; type: functional
[10] = molecular target: T6, Cannabinoid receptor 1 (Homo sapiens, UniProt P21554); assay: SAR analysis of antagonists of the Cannabinoid Receptor 1 using an Image-Based Assay - Set 2. [Related pubchem assays (depositor defined):AID2013, AID2026]; type: functional
T6 sequence (P21554 whole entry): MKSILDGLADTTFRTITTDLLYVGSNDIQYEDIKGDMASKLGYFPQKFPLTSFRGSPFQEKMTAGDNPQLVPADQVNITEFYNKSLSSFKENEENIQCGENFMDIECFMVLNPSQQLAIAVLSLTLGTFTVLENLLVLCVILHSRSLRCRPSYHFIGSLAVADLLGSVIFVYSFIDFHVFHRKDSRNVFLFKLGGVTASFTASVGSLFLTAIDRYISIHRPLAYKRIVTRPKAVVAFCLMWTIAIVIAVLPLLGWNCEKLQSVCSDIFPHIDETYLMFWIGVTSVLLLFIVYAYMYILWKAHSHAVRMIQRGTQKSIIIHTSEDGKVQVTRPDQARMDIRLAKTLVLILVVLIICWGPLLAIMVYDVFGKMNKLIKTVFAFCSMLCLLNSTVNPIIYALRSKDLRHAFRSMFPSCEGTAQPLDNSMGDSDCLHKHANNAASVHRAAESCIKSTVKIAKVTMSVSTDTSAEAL

[11] = molecular target: T6, Cannabinoid receptor 1; assay: SAR analysis of agonists of the Cannabinoid Receptor 1 using an Image-Based Assay - Set 2. [Related pubchem assays (depositor defined):AID2013, AID2026]; type: functional
[12] = molecular target: T3, G-protein coupled receptor 35; assay: SAR analysis of Antagonists of the GPR35 Receptor using an Image-Based Assay - Set 6. [Related pubchem assays (depositor defined):AID2013, AID2026]; type: functional
[13] = molecular target: T5, Cannabinoid receptor 2; assay: SAR analysis of antagonists of the Cannabinoid Receptor 2 using an Image-Based Assay - Set 3. [Related pubchem assays (depositor defined):AID2013, AID2026]; type: functional
[14] = molecular target: T4, G-protein coupled receptor 55; assay: SAR Analysis of Selective Antagonists of GPR55 using an Image-Based Assay - Set 4. [Related pubchem assays (depositor defined):AID2013, AID2026]; type: functional
[15] = molecular target: T6, Cannabinoid receptor 1; assay: SAR analysis of agonists of the Cannabinoid Receptor 1 using an Image-Based Assay - Set 4. [Related pubchem assays (depositor defined):AID2013, AID2026]; type: functional
[16] = molecular target: T5, Cannabinoid receptor 2; assay: SAR analysis of agonists of the Cannabinoid Receptor 2 using an Image-Based Assay - Set 3. [Related pubchem assays (depositor defined):AID2013, AID2026]; type: functional
[17] = molecular target: T6, Cannabinoid receptor 1; assay: SAR analysis of antagonists of the Cannabinoid Receptor 1 using an Image-Based Assay - Set 4. [Related pubchem assays (depositor defined):AID2013, AID2026]; type: functional
[18] = molecular target: T3, G-protein coupled receptor 35; assay: SAR analysis of Agonists of the GPR35 Receptor using an Image-Based Assay - Set 4. [Related pubchem assays (depositor defined):AID2013, AID2026]; type: functional
[19] = molecular target: Signal transducer and activator of transcription 1-alpha/beta (Homo sapiens, UniProt P42224); assay: STAT3 blockade with qPCR and toxicity readouts – cell-based, STAT1 panel, cytotoxicity, late-stage follow-up, panel member STAT1 Inhibition (AID 2078)
[20] = molecular target: Signal transducer and activator of transcription 3 (Homo sapiens, UniProt P40763); assay: STAT3 blockade with qPCR and toxicity readouts – cell-based, STAT1 panel, cytotoxicity, late-stage follow-up, panel member STAT3 Inhibition (AID 2078)
Chain of Signal transducer and activator of transcription 3 (P40763 whole entry): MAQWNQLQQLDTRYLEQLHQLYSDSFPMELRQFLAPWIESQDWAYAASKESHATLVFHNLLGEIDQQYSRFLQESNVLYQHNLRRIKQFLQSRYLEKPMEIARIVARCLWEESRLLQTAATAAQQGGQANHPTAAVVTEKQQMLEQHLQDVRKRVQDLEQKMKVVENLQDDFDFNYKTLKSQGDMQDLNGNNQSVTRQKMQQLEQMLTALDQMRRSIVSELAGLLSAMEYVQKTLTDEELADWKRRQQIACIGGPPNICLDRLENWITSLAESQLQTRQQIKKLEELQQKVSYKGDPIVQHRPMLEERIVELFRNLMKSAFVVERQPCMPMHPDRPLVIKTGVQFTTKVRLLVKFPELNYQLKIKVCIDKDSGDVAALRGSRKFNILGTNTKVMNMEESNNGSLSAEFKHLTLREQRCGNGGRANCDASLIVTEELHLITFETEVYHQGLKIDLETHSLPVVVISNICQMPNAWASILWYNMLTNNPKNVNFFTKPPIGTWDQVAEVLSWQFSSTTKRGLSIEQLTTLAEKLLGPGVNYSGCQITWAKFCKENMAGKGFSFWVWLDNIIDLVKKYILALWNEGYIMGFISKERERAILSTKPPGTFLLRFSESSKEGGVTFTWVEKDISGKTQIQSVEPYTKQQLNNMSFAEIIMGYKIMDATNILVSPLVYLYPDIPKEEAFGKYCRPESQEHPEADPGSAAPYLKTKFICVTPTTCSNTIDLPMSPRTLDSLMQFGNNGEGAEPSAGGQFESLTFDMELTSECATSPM

[21] = molecular target: Sphingosine 1-phosphate receptor 2 (Homo sapiens, UniProt O95136); assay: (§1) Late-stage fluorescence-based dose-response cell-based assay to identify agonists of the Sphingosine 1-Phosphate Receptor 4 (S1P4): Sphingosine 1-Phosphate Receptor 2 (S1P2) counterscreen assay. [Related pubchem assays (depositor defined):AID1509, AID1523, AID1563, AID1686, AID1701, AID1801, AID463107, AID463225, AID504400]; type: functional
Chain of Sphingosine 1-phosphate receptor 2 (O95136 whole entry): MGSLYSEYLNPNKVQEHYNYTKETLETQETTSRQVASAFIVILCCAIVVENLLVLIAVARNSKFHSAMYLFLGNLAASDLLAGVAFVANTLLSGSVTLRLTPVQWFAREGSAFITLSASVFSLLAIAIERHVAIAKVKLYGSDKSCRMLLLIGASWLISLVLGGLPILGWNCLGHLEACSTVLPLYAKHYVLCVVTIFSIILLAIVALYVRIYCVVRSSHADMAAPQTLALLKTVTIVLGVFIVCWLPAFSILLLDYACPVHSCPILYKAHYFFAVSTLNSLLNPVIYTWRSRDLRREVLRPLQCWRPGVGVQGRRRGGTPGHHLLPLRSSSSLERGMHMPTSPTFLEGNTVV

[22] = molecular target: Sphingosine 1-phosphate receptor 5 (Homo sapiens, UniProt Q9H228); assay: as §1, with “5 (S1P5)” for “2 (S1P2)”; type: functional
[23] = molecular target: Sphingosine 1-phosphate receptor 1 (Homo sapiens, UniProt P21453); assay: as §1, with “1 (S1P1)” for “2 (S1P2)”; type: functional
Chain of Sphingosine 1-phosphate receptor 1 (P21453 whole entry): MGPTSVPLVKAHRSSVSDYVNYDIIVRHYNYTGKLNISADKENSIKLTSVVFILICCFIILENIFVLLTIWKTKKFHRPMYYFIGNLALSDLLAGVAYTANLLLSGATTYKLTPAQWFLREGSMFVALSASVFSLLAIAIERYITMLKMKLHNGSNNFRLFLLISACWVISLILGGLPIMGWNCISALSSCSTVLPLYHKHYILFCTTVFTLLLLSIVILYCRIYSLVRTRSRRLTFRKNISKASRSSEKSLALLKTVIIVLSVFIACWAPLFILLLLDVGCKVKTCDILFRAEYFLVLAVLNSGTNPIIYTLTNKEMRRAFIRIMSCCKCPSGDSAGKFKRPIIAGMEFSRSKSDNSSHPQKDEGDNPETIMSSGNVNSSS

[24] = molecular target: Sphingosine 1-phosphate receptor 3 (Homo sapiens, UniProt Q99500); assay: as §1, with “3 (S1P3)” for “2 (S1P2)”; type: functional
Chain of Sphingosine 1-phosphate receptor 3 (Q99500 whole entry): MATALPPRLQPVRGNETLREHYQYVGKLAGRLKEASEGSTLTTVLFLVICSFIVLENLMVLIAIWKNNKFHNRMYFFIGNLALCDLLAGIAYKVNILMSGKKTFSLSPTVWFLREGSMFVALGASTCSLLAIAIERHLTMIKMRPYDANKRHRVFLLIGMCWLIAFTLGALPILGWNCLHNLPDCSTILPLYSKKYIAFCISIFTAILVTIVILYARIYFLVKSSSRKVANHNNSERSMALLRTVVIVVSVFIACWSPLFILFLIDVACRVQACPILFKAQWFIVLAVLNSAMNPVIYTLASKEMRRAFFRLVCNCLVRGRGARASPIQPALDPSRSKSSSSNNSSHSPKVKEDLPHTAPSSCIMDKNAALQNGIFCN

[25] = molecular target: T7, Tyrosine-protein phosphatase non-receptor type 22 (Homo sapiens, UniProt Q9Y2R2); assay: inhibition of lymphoid tyrosine phosphatase LYP – biochemical, pCAP fluorogenic substrate, fluorescence, set 3, SAR follow-up (AID 449727); type: functional
T7 sequence (Q9Y2R2 whole entry): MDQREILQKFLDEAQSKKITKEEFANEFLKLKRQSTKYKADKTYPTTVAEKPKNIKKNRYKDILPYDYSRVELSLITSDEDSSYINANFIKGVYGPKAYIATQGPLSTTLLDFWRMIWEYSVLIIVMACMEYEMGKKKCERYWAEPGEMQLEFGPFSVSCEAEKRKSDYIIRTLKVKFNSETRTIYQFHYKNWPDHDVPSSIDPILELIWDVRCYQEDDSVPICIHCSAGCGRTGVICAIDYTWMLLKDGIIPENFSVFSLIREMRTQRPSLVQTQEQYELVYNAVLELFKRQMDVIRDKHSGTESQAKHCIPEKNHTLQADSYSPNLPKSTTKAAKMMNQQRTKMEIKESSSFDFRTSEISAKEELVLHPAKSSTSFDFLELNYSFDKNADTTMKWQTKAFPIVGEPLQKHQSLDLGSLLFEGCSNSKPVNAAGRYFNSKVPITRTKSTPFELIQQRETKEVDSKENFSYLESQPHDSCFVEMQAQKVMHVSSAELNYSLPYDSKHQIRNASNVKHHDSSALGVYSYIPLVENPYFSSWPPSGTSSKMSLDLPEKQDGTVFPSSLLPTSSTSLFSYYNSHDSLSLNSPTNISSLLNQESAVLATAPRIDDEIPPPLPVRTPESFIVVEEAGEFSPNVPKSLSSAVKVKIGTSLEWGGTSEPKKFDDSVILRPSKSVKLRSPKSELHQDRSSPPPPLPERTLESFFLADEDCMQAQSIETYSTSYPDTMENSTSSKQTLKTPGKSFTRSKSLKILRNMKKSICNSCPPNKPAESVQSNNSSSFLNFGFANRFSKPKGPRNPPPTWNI

[26] = molecular target: T8, Tyrosine-protein phosphatase non-receptor type 7 (Homo sapiens, UniProt P35236); assay: redox-active compounds inhibiting HePTP phosphatase – biochemical, fluorescence, mechanism study (AID 2068); type: functional
T8 sequence (P35236 whole entry): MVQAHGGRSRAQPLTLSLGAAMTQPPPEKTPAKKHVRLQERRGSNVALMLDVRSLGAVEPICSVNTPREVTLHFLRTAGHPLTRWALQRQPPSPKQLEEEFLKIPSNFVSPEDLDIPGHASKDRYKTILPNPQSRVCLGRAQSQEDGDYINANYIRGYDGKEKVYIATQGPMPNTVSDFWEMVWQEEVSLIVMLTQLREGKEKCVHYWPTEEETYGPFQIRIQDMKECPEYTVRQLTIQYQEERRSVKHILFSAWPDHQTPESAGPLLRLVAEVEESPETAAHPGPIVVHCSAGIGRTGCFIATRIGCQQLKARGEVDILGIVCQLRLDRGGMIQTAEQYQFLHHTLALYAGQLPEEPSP

[27] = molecular target: T9, Dual specificity protein phosphatase 6 (Rattus norvegicus, UniProt Q64346); type: functional;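 further: confirmatory in vitro dose-response testing of MKP-3 inhibition; recombinant His-tagged MKP-3 made in E. coli BL21 with OMFP substrate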
T9 sequence (Q64346 whole entry): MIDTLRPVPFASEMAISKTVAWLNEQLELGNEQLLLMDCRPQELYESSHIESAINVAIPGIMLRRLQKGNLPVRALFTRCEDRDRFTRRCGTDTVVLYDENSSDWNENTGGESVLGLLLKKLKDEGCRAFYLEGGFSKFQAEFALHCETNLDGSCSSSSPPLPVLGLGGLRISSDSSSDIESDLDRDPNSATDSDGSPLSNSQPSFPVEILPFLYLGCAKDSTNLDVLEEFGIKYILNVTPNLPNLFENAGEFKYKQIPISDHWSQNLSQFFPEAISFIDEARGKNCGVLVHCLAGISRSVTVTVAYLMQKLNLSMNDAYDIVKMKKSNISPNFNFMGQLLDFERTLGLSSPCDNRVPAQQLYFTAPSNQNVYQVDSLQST

[28] = molecular target: T7, Tyrosine-protein phosphatase non-receptor type 22; assay: SAR LYP1 Fluorescent Assay using OMFP substrate for In Vitro dose response studies - Set 3. [Related pubchem assays (depositor defined):AID1779, AID1784, AID2140, AID2686]; type: functional
[29] = molecular target: T8, Tyrosine-protein phosphatase non-receptor type 7; assay: inhibition of hematopoietic tyrosine phosphatase HePTP – biochemical, set 2, SAR follow-up (AID 449736); type: functional
[30] = molecular target: Tyrosine-protein phosphatase non-receptor type 12 (Homo sapiens, UniProt Q05209); assay: SAR Selectivity Analysis of small molecule inhibitors of PEST using pCAP in a fluorescence assay. [Related pubchem assays (depositor defined):AID1779, AID1784, AID2135]; type: functional
Chain of Tyrosine-protein phosphatase non-receptor type 12 (Q05209 whole entry): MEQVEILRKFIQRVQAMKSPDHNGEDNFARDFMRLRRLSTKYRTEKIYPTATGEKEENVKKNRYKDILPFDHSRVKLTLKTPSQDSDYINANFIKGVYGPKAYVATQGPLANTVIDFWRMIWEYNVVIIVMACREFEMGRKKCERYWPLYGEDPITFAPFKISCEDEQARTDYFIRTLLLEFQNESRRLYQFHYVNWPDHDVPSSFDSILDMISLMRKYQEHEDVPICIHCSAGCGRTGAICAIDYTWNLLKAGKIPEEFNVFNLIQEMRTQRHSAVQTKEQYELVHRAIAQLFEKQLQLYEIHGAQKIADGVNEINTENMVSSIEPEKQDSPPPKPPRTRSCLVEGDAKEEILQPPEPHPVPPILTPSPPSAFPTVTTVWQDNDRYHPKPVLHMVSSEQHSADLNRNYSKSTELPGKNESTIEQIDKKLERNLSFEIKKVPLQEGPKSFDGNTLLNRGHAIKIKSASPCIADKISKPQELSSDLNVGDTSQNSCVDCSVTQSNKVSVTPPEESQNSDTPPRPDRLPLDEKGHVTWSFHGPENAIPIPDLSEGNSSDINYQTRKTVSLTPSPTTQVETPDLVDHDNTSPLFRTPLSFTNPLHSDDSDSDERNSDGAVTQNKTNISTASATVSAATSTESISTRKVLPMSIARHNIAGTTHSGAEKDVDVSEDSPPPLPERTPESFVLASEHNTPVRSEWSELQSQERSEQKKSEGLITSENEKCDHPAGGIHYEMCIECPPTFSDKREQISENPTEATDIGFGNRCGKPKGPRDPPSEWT

[31] = molecular target: Dual specificity protein phosphatase 3 (Homo sapiens, UniProt P51452); assay: SAR VHR1 Fluorescent Assay for In Vitro dose response studies Set 2. [Related pubchem assays (depositor defined):AID1654, AID1661, AID1878]; type: functional
Chain of Dual specificity protein phosphatase 3 (P51452 whole entry): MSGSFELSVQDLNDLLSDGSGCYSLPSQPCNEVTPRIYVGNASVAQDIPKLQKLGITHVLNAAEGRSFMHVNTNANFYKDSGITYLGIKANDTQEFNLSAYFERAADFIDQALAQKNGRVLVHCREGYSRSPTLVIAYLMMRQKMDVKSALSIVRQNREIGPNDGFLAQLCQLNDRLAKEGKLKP

For `COc1cc(NC(=S)NC(=O)CCc2ccccc2)cc(OC)c1`, the EC50 [1] was > 100 µM (inactive).
For `CCc1nnc(NC(=O)c2sc3nc4c(cc3c2N)CCCCC4)s1`, the IC50 [2] was 26.5 µM (active) and the IC50 [3] was 16.6 µM (active).
`O=C(N1CCC(n2nc(-c3ccccc3)oc2=O)CC1)C1(c2ccc(Cl)cc2)CC1` was tested, and the IC50 [4] was > 32 µM (inactive), the IC50 [5] was 0.76 µM (active) and the EC50 [6] was > 32 µM (inactive). For the same compound, the IC50 [7] was > 32 µM (inactive), the IC50 [8] was 0.68 µM (active) and the EC50 [9] was > 32 µM (inactive). For the same compound, the IC50 [10] was 9.6 µM (active) and the EC50 [11] was > 32 µM (inactive).
In the case of `Cc1nc(N2CCN(C(=O)C(C)C)CC2)c2c3c(sc2n1)CCCC3`, the IC50 [12] is reported as > 32 µM (inactive), the IC50 [13] is reported as > 32 µM (inactive) and the IC50 [14] is reported as 22.7 µM (inactive). The EC50 [15] was > 32 µM (inactive), the EC50 [16] was > 32 µM (inactive) and the IC50 [17] was 14.7 µM (inactive). The EC50 [18] was > 32 µM (inactive).
With `Cc1nc(N2CCC(C(O)c3ccccc3)CC2)c2c3c(sc2n1)CCCC3` (stereo unspecified) the IC50 [19] was > 55.7 µM (inactive) and the IC50 [20] was > 55.7 µM (inactive).
For `Cc1ccc(OCCOc2ccc(Cl)cc2Cl)c(Br)n1`, the EC50 [21] was > 50 µM (inactive), the EC50 [22] was > 50 µM (inactive) and the EC50 [23] was > 50 µM (inactive). For the same compound, the EC50 [24] was > 50 µM (inactive).
For `COC(=O)COc1ccc(/C=C2\SC(=Nc3ccc(F)cc3)NC2=O)cc1`, the IC50 [25] was 3.39 µM (active), the IC50 [26] was 1.07 µM (active) and the IC50 [27] was 50.7 µM (active). The IC50 [28] was 3.49 µM (active), the IC50 [29] was 1.58 µM (active) and the IC50 [30] was 0.975 µM (active). The IC50 [31] was 2.49 µM (active).

From ChEMBL document CHEMBL1201862, “PubChem BioAssay data set” (2004)
